According to patent US10301520B2, “Compositions of hydrochlorofluoroolefins” (Arkema Inc., priority 2008, dated 2019):

Tests used:
[1] = Vapor pressure in high-pressure cell; format: physicochemical
Experimental: A high-pressure cell equipped with a certified pressure gauge was evacuated by a vacuum pump to remove all permanent gases. 14.21 g of 1233xf and 9.17 g of E-1233zd were then loaded into the cell individually by a stainless steel syringe pump. The high-pressure cell was placed in an orbital shaker in which temperature was controlled at the accuracy of 0.1° C. […] At each temperature the pressure was measured after one hour in order to achieve equilibrium. The accuracy of the pressure gauge was + or −0.1 psia. […] The measured pressure can be seen in Table 1.

[2] = Flash point, ASTM D3278-96; format: physicochemical
Source text: Flammability of a solvent is related to safety of its use. For most application, it is desirable that a solvent have as low a flammable as possible. The flammability of E-1233zd was characterized by flash point measured according to ASTM D3278-96. The flash point of TDCE and HCFC 225 were used as comparative examples.

[3] = Degreasing of lubricant oil from stainless steel plates; settings: immersion 5 minutes at ambient temperature
Experimental: (§1) A small quantity of commercial lubricant oil was deposited on the surface of several 30×10 mm stainless steel plates. The mass of each plate was determined with a precision of 0.1 mg before and after deposition. The difference between these two values corresponds to the initial mass of lubricant.
(§2) Once the initial mass is obtained, each steel plate is immersed in a beaker filled with a cleaning composition at ambient temperature for 5 minutes. Thereafter, the steel plates were removed from the beaker and dried in the open air for 5 minutes. Thereafter, the mass of each plate was determined to evaluate the percentage of lubricant oil removed during the test.

[4] = Cleaning of silicone oil from stainless steel plates; settings: silicon oil; immersion 5 minutes at ambient temperature
Experimental: as §1, §2
A procedure similar to Example 5 was followed using silicon oil. The results were summarized as in Table 6

[5] = Defluxing of solder flux from stainless steel plates
Experimental: A small quantity of commercial solder flux was deposited on the surface of several 30×10 mm stainless steel plates. The mass of each plate was determined with a precision of 0.1 mg before deposition and corresponds to the tare. The plates were heated to 250° C. until fusion of the metal from the solder flux (between 1 and 2 min.). The metal could then be easily removed from the plates and only the flux remained on them.
The plates prepared with this method were dried in the open air at ambient temperature for 16 hours. The mass of each dried plate was determined with a precision of 0.1 mg before and after deposition. The difference between these two values corresponds to the initial mass of flux.
Once the initial mass was obtained, half of the steel plates are immersed in a beaker filled with a cleaning composition at ambient temperature for 30 minutes and the other half of the plates immersed in a beaker filled with the cleaning solution for 60 minutes. After the immersion, the steel plates were removed from the beakers and dried in the open air for 5 minutes. Thereafter, the mass of each plate was determined to evaluate the percentage of flux removed during the test.

[6] = Cleaning of mineral oil from stainless steel plates; settings: immersion 5 minutes at ambient temperature
Experimental: as §1, §2
A procedure similar to Example 5 was followed using commercial natural mineral oil for high pressure.

AMES testing = format: cell-based; settings: compared with the cis isomer
Source text: A major portion of the HCFO-1233zd of the present invention is the trans isomer. […] A preferred ratio of trans and cis isomers of HCFO-1233zd is less than about 30% weight of the combination of the cis isomer, and preferably less than about 10% of the cis isomer. The most preferred ratio is less than about 3% of the cis isomer. […] The preferred Kauri-butanol value of the composition of the present invention is above 15 and preferably above 20.

[7] = Evaporator cleaning (flushing); settings: flushing 10 minutes at ambient temperature; compared with HFC-245fa
Experimental: An evaporator from a refrigeration system contains a known quantity of 300 SUS mineral oil. The evaporator could be flushed with flushing agent for 10 minutes at ambient temperature. Following the flushing period, the quantity of oil and residue removed would be determined. This could be done by measuring the weight of the evaporator following flushing and evacuation of flushing agent and/or by stripping the flushing agent from the removed oil and residue and weighing that. HFC-245fa and trans-HCFO-1233zd would be used as flushing agents.

[8] = Residual flushing agent after drying of evaporator; settings: 25 °C, air flow, 10 minutes drying; compared with trans-HCFO-1233zd
Experimental: To a clean evaporator from an air conditioning, a measured quantity of flushing liquid would be added to simulate conditions following an open-loop evaporator flushing procedure. The evaporator would be maintained at 25° C. with a slow flow of air passing through the evaporator to assist in drying. The evaporator would be dried such as for 10 minutes and then weighed to measure the quantity of flushing agent remaining.

Q: Which Pressure ([1]; 5.0 °C) does the source give for `C=C(Cl)C(F)(F)F` [1233xf, 2-chloro-3,3,3-trifluoropropene, reference compound] here?
A: 11.5 psia

Q: What about the Pressure ([1]; 15.0 °C) of the same compound?
A: 16.8 psia

Q: What about the Pressure ([1]; 18.5 °C) of the same compound?
A: 18.3 psia

Q: And the Pressure ([1]; 25.0 °C)?
A: 23.8 psia

Q: And the Pressure ([1]; 35.0 °C)?
A: 32.7 psia

Q: And the “Pressure versus atmospheric pressure” value ([1]; temperature range 15 to 25 °C)?
A: > 14.7 psia

Q: For `FC(F)(F)/C=C/Cl` [E-1233zd, 1-chloro-3,3,3-trifluoropropene], which Pressure ([1]; 5.0 °C) is on record?
A: 9.1 psia

Q: What about the Pressure ([1]; 15.0 °C) of the same compound?
A: 13.7 psia

Q: What about the Pressure ([1]; 18.5 °C) of the same compound?
A: 14.7 psia

Q: What about the Pressure ([1]; 25.0 °C) of the same compound?
A: 19.7 psia

Q: What about the Pressure ([1]; 35.0 °C) of the same compound?
A: 27.5 psia

Q: What about the “Pressure versus atmospheric pressure” value ([1]; temperature range 5 to 15 °C) of the same compound?
A: lower than atmospheric

Q: What about the Flash point [2] of the same compound?
A: No

Q: What about the Removal rate [3] of the same compound?
A: 99.10%

Q: What about the Removal rate [4] of the same compound?
A: 99.10%

Q: And the “Removal rate for 30 mn” value ([5]; immersion 30 minutes at ambient temperature)?
A: 36.04%

Q: And the “Removal rate for 60 mn” value ([5]; immersion 60 minutes at ambient temperature)?
A: 26.24%

Q: And the Removal rate [6]?
A: 57.2%

Q: And the “Genotoxicity in AMES testing” value (AMES testing)?
A: significantly lower genotoxicity

Q: What about the “Percentage of oil and residue removed during flushing” value [7] of the same compound?
A: greater percentage

Q: What does the source list for `CC(F)(Cl)Cl` [HCFC 141b, 1,1-dichloro-1-fluoroethane, reference compound]?
A: Removal rate [3]: 99.60%; Removal rate [4]: 98.40%

Q: For `COC(C)=O` [Methyl acetate], which Removal rate [6] is on record?
A: 31.67%

Q: For `Cl/C=C/Cl` [TDCE, trans-1,2-dichloroethylene], which Flash point [2] is on record?
A: Yes

Q: What about the Removal rate [6] of the same compound?
A: 88.51%

Q: With `FC(F)(F)/C=C/Cl` [cis-HCFO-1233zd, 1-chloro-3,3,3-trifluoropropene] as the compound, how does the “Quantity of flushing agent remaining after drying” value [8] read?
A: more cis-HCFO-1233zd would remain

Q: For dichloropentafluoropropane [HCFC 225], which Flash point [2] is on record?
A: No
